What was measured:
Hepatitis B virus [1] = test: Antiviral activity against HBV infected in human HepG2(2.2.15) cells assessed as reduction in HBeAg antigen secretion after 72 hrs by ELISA; format: functional, organism-based; settings: HepG2 2.2.15, 72 h
[2] = Cytotoxicity in human HepG2(2.2.15) cells after 72 hrs by MTT assay; format: cell-based
Hepatitis B virus [3] = test: Antiviral activity against HBV infected in human HepG2(2.2.15) cells assessed as reduction in HBsAg antigen secretion after 72 hrs by ELISA; format: functional, organism-based; settings: HepG2 2.2.15, 72 h
[4] = Selectivity index, ratio of CC50 for human HepG2(2.2.15) cells to IC50 for HBeAg antigen secretion in HBV infected in human HepG2(2.2.15) cells; format: functional
[5] = Selectivity index, ratio of CC50 for human HepG2(2.2.15) cells to IC50 for HBsAg antigen secretion in HBV infected in human HepG2(2.2.15) cells; format: functional

SMILES | IC50 (Hepatitis B virus [1]) [µM] | CC50 at 72 h [2] [µM] | IC50 (Hepatitis B virus [3]) [µM] | Ratio CC50/IC50 [4] | Ratio CC50/IC50 [5]
CC(=O)/C=C/c1cccc2c1CCOC2=O [Swerilactone O] | > 1440 | > 1440 | > 1440 |  | 
Nc1ccn([C@@H]2CS[C@H](CO)O2)c(=O)n1 [LAMIVUDINE] |  | 33200 |  | 1.1 | 
CC(=O)C[C@@H]1O[C@@H](C)C(=O)C2=C1C(=O)OCC2 [Swerilactone L] | 880 | 1430 | 1470 | 1.62 | <1
CC(=O)c1cc2c(c([C@H](C)O)c1)CCOC2=O [Swerilactone M] | > 2690 | 1840 | 1200 | <1 | 1.53
CC(=O)C[C@H](O)c1cccc2c1CCOC2=O [Swerilactone N] | > 510 | > 510 | > 510 |  | 

Reference: ChEMBL document CHEMBL1817662, “Swerilactones L-O, secoiridoids with C₁₂ and C₁₃ skeletons from Swertia mileensis” (J Nat Prod, 2011)
